Data reported in US6548494B1, “Tricyclic inhibitors of poly(ADP-ribose) polymerases” (Agouron Pharmaceuticals, Inc., priority 1999, dated 2003).
Values joined by “and” are separate entries in the source; they are usually repeats but may differ in a detail not shown here. Identical values can stand only once. Counter-ions that a name gives are not always drawn.

target: purified PARP protein (Homo sapiens, UniProt P09874); test: PARP enzyme inhibition assay; assay type: biochemical; conditions: 20 nM purified PARP (5 nM for tight-binding inhibitors), 500 μM NAD+, 25° C.; several values in one cell = repeat determinations; read-out: Inhibition Constant Ki
Sequence (P09874 whole entry): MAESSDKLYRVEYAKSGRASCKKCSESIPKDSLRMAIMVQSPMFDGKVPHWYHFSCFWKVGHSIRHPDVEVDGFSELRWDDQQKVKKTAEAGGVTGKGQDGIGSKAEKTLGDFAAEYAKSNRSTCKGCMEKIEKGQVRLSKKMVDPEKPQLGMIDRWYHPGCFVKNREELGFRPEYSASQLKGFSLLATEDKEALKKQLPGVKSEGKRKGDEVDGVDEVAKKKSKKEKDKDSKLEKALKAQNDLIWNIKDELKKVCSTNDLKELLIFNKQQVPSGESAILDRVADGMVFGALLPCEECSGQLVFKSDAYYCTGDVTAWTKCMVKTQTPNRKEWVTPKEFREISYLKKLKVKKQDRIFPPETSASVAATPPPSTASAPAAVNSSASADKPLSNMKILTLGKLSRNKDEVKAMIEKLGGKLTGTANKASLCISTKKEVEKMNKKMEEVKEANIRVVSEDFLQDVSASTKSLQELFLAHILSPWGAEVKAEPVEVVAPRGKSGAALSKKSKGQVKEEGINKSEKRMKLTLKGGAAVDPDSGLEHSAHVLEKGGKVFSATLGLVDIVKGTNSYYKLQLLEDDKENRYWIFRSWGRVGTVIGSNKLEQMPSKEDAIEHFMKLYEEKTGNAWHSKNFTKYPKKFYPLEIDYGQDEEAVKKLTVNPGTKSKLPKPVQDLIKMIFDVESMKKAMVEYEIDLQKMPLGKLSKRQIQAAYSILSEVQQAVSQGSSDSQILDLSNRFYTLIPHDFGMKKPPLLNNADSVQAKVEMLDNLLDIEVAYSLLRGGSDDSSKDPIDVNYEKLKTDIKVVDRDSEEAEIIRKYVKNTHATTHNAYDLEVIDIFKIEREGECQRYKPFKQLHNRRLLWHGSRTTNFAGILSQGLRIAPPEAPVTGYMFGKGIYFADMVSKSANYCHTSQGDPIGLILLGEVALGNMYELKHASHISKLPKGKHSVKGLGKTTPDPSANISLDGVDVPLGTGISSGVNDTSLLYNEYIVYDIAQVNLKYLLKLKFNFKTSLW

Ki | Compound
5 nM | O=C1NCCn2c(-c3ccc(C4CCCCN4CC4CC4)cc3)nc3cccc1c32 (stereo not shown) [Example 150, 1-[4-(1-Cyclopropylmethyl-piperidin-2-yl)-phenyl]-8,9-dihydro-7H-2,7,9a-triaza-benzo[cd]azulen-6-one]
57 nM | N/N=C(\N)c1c(-c2ccc(F)cc2)n2c3c(cccc13)C(=O)NCC2 [Example 156, 7-Formyl-6-(4-fluorophenyl)-1-oxo-3,4-dihydro-[1,4]diazepino[6,7,1-hi]indole Amidrazone Hydrochloride]
4.6 nM | O=C1NCCn2c(-c3ccc(CN4CCC(O)C4)cc3)nc3cc(F)cc1c32 (stereo not shown) [Example 172, 4-Fluoro-1-[4-(3-hydroxy-pyrrolidin-1-ylmethyl)-phenyl]-8,9-dihydro-7H-2,7,9a-triaza-benzo[cd]azulen-6-one]
6.3 nM | O=C1NCCn2c(-c3ccc(CN4CCC[C@@H]4CO)cc3)nc3cccc1c32 [Example 173, 1-[4-((2R)-2-Hydroxymethyl-pyrrolidin-1-ylmethyl)-phenyl]-8,9-dihydro-7H-2,7,9a-triaza-benzo[cd]azulen-6-one]
6.6 nM | O=C1NCCn2c(-c3ccc(CN4CCCC(CO)C4)cc3)nc3cccc1c32 (stereo not shown) [Example 175, 1-[4-(3-Hydroxymethyl-piperidin-1-ylmethyl)-phenyl]-8,9-dihydro-7H-2,7,9a-triaza-benzo[cd]azulen-6-one]
9 nM | CN(Cc1ccc(-c2nc3cccc4c3n2CCNC4=O)cc1)CC(O)CO (stereo not shown) [Example 176, 1-(4-{[(2,3-Dihydroxy-propyl)-methyl-amino]-methyl}-phenyl)-8,9-dihydro-7H-2,7,9a-triaza-benzo[cd]azulen-6-one]
12 nM | C=CCN1CCN(Cc2ccc(-c3nc4cccc5c4n3CCNC5=O)cc2)CC1 [Example 178, 1-[4-(4-Allyl-piperazin-1-ylmethyl)-phenyl]-2,7,8,9-tetrahydro-2,7,9a-triaza-benzo[cd]azulen-6-one]
5.6 nM | CN(CCc1ccccc1)Cc1ccc(-c2nc3cccc4c3n2CCNC4=O)cc1 [Example 179, 1-{4-[(Methyl-phenethyl-amino)-methyl]-phenyl}-2,7,8,9-tetrahydro-2,7,9a-triaza-benzo[cd]azulen-6-one]
7.4 nM | CCCCN(CCO)Cc1ccc(-c2nc3cccc4c3n2CCNC4=O)cc1 [Example 180, 1-(4-{[Butyl-(2-hydroxy-ethyl)-amino]-methyl}-phenyl)-2,7,8,9-tetrahydro-2,7,9a-triaza-benzo[cd]azulen-6-one]
3.9 nM | O=C1NCCn2c(-c3ccc(CN4CCC[C@H]4CO)cc3)nc3cccc1c32 [Example 181, 1-[4-((2S)-2-Hydroxymethyl-pyrrolidin-1-ylmethyl)-phenyl]-2,7,8,9-tetrahydro-2,7,9a-triaza-benzo[cd]azulen-6-one]
4.7 nM | O=C1NCCn2c(-c3ccc(CN4CC=CCC4)cc3)nc3cccc1c32 [Example 182, 1-[4-(3,6-Dihydro-2H-pyridin-1-ylmethyl)-phenyl]-2,7,8,9-tetrahydro-2,7,9a-triaza-benzo[cd]azulen-6-one]
8 nM | O=C1NCCn2c(-c3ccc(CNCCc4ccccc4)cc3)nc3cccc1c32 [Example 183, 1-[4-(Phenethylamino-methyl)-phenyl]-2,7,8,9-tetrahydro-2,7a-triaza-benzo[cd]azulen-6-one]
5.6 nM | O=C1NCCn2c(-c3ccc(CNCCc4ccc(F)cc4)cc3)nc3cccc1c32 [Example 185, 1-(4-{[2-(4-Fluoro-phenyl)-ethylamino]-methyl}-phenyl)-2,7,8,9-tetrahydro-2,7,9a-triaza-benzo[cd]azulen-6-one]
7 nM | CC(C)CN(C)Cc1ccc(-c2nc3cccc4c3n2CCNC4=O)cc1 [Example 187, 1-{4-[(Isobutyl-methyl-amino)-methyl]-phenyl}-8,9-dihydro-7H-2,7,9a-triaza-benzo[cd]azulen-6-one]
4.8 nM | O=C1NCCn2c(-c3ccc(CNC4CCC4)cc3)nc3cccc1c32 [Example 188, 1-(4-Cyclobutylaminomethyl-phenyl)-8,9-dihydro-7H-2,7,9a-triaza-benzo[cd]azulen-6-one]
5.1 nM | O=C1NCCn2c(-c3ccc(CNCc4cccs4)cc3)nc3cccc1c32 [Example 189, 1-(4-{[(Thiophen-2-ylmethyl)-amino]-methyl}-phenyl)-8,9-dihydro-7H-2,7,9a-triaza-benzo[cd]azulen-6-one]
8.1 nM | CCCN(CCC)Cc1ccc(-c2nc3cccc4c3n2CCNC4=O)cc1 [Example 190, 1-(4-Dipropylaminomethyl-phenyl)-8,9-dihydro-7H-2,7,9a-triaza-benzo[cd]azulen-6-one]
4.3 nM | O=C1NCCn2c(-c3ccc(CNCc4ccc5c(c4)OCO5)cc3)nc3cccc1c32 [Example 191, 1-(4-{[(Benzo[1,3]dioxol-5-ylmethyl)-amino]-methyl}-phenyl)-8,9-dihydro-7H-2,7,9a-triaza-benzo[cd]azulen-6-one]
4.5 nM | O=C1NCCn2c(-c3ccc(CNC4CCc5ccccc54)cc3)nc3cccc1c32 (stereo not shown) [Example 192, 1-[4-(Indan-1-ylaminomethyl)-phenyl]-8,9-dihydro-7H-2,7,9a-triaza-benzo[cd]azulen-6-one]

Ki | Compound
11 nM | CCOC(=O)CCN(Cc1ccc(-c2nc3cccc4c3n2CCNC4=O)cc1)Cc1ccco1 [Example 193, 3-{[4-(6-oxo-6,7,8,9-Tetrahydro-2,7,9a-triaza-benzo[cd]azulen-1-yl)-benzyl]-furan-2-ylmethyl-amino}-propionic Acid Ethyl Ester]
6.2 nM | CN1CCCC1CCNCc1ccc(-c2nc3cccc4c3n2CCNC4=O)cc1 (stereo not shown) [Example 194, 1-(4-{[2-(1-Methyl-pyrrolidin-2-yl)-ethylamino]-methyl}-phenyl)-8,9-dihydro-7H-2,7,9a-triaza-benzo[cd]azulen-6-one]
4.7 nM and 5.9 nM | Cc1ccc(CNCc2ccc(-c3nc4cccc5c4n3CCNC5=O)cc2)o1 [Example 195, 1-(4-{[(5-Methyl-furan-2-ylmethyl)-amino]-methyl}-phenyl)-8,9-dihydro-7H-2,7,9a-triaza-benzo[cd]azulen-6-one]
3.9 nM | O=C1NCCn2c(-c3ccc(CNCc4ccccc4)cc3)nc3cccc1c32 [Example 196, 1-[4-(Benzylamino-methyl)-phenyl]-8,9-dihydro-7H-2,7,9a-triaza-benzo[cd]azulen-6-one]
7.9 nM | O=C1NCCn2c(-c3ccc(CN4CCc5ccccc5C4)cc3)nc3cccc1c32 [Example 198, 1-[4-(3,4-Dihydro-1H-isoquinolin-2-ylmethyl)-phenyl]-8,9-dihydro-7H-2,7,9a-triaza-benzo[cd]azulen-6-one]
6.8 nM | CN(Cc1ccccc1)Cc1ccc(-c2nc3cccc4c3n2CCNC4=O)cc1 [Example 199, 1-[4-(Benzyl-methyl-amino-methyl)-phenyl]-8,9-dihydro-7H-2,7,9a-triaza-benzo[cd]azulen-6-one]
6 nM | CC(CNCc1ccc(-c2nc3cccc4c3n2CCNC4=O)cc1)c1ccccc1 (stereo not shown) [Example 200, 1-{4-[(2-Phenyl-propylamino)-methyl]-phenyl}-8,9-dihydro-7H-2,7,9a-triaza-benzo[cd]azulen-6-one]
5.8 nM | O=C1NCCn2c(-c3ccc(CNCCCc4ccccc4)cc3)nc3cccc1c32 [Example 201, 1-{4-[(3-Phenyl-propylamino)-methyl]-phenyl}-8,9-dihydro-7H-2,7,9a-triaza-benzo[cd]azulen-6-one]
3.2 nM | CN(CCc1ccccn1)Cc1ccc(-c2nc3cccc4c3n2CCNC4=O)cc1 [Example 202, 1-(4-{[Methyl-(2-pyridin-2-yl-ethyl)-amino]-methyl}-phenyl)-8,9-dihydro-7H-2,7,9a-triaza-benzo[cd]azulen-6-one]
7.9 nM | O=C1NCCn2c(-c3ccc(CNCCc4ccccn4)cc3)nc3cccc1c32 [Example 204, 1-{4-[(2-Pyridin-2-yl-ethylamino)-methyl]-phenyl}-8,9-dihydro-7H-2,7,9a-triaza-benzo[cd]azulen-6-one]
4.7 nM | CN(CCc1ccncc1)Cc1ccc(-c2nc3cccc4c3n2CCNC4=O)cc1 [Example 205, 1-(4-{[Methyl-(2-pyridin-4-yl-ethyl)-amino]-methyl}-phenyl)-8,9-dihydro-7H-2,7,9a-triaza-benzo[cd]azulen-6-one]
6.4 nM | O=C1NCCn2c(-c3ccc(CNCCc4ccncc4)cc3)nc3cccc1c32 [Example 206, 1-{4-[(2-Pyridin-4-yl-ethylamino)-methyl]-phenyl}-8,9-dihydro-7H-2,7,9a-triaza-benzo[cd]azulen-6-one]
7.4 nM | O=C1NCCn2c(-c3ccc(Cn4ccnc4)cc3)nc3cccc1c32 [Example 213, 1-(4-Imidazol-1-ylmethyl-phenyl)-8,9-dihydro-7H-2,7,9a-triaza-benzo[cd]azulen-6-one]
8.3 nM | CC1CCC(C)N1Cc1ccc(-c2nc3cccc4c3n2CCNC4=O)cc1 (stereo not shown) [Example 214, 1-[4-(2,5-Dimethyl-pyrrolidin-1-ylmethyl)-phenyl]-8,9-dihydro-7H-2,7,9a-triaza-benzo[cd]azulen-6-one]
11 nM | CC1(C)CC2CC(C)(CN2Cc2ccc(-c3nc4cccc5c4n3CCNC5=O)cc2)C1 (stereo not shown) [Example 215, 1-[4-(1,3,3-Trimethyl-6-aza-bicyclo[3.2.1]oct-6-ylmethyl)-phenyl]-8,9-dihydro-7H-2,7,9a-triaza-benzo[cd]azulen-6-one]
27 nM | COC[C@@H]1CC[C@@H](COC)N1Cc1ccc(-c2nc3cccc4c3n2CCNC4=O)cc1 [Example 216, 1-[4-((2S,5S)-2,5-bis-Methoxymethyl-pyrrolidin-1-ylmethyl)-phenyl]-8,9-dihydro-7H-2,7,9a-triaza-benzo[cd]azulen-6-one]
26 nM | O=C1NCCn2c(-c3ccc(CN4CCC[C@@H]4C(=O)OCc4ccccc4)cc3)nc3cccc1c32 [Example 217, (R)-1-[4-(6-oxo-6,7,8,9-Tetrahydro-2,7,9a-triaza-benzo[cd]azulen-1-yl)-benzyl]-pyrrolidine-2-carboxylic Acid Benzyl Ester]
17 nM | CC(C)(C)OC(=O)[C@H]1CCCN1Cc1ccc(-c2nc3cccc4c3n2CCNC4=O)cc1 [Example 218, (R)-1-[4-(6-oxo-6,7,8,9-Tetrahydro-2,7,9a-triaza-benzo[cd]azulen-1-yl)-benzyl]-pyrrolidine-2-carboxylic Acid tert-Butyl Ester]
